US11236087B2, “Highly active pyrazolo-piperidine substituted indole-2-carboxamides active against the hepatitis B virus (HBV)” (AiCuris GmbH & Co. KG, priority 2017, dated 2022)

Key:
HBV core protein = molecular target: T1, HBV core protein (UniProt P03146); test: Biochemical capsid assembly assay (fluorescence quenching); parameters: species or system hepatitis B virus; details: read-out: Assembly Activity (IC50); BODIPY-FL labelled core protein, 300 μM NaCl, read 6 min after start
T1 construct: fused on or other part: BODIPY-FL maleimide label on the C-terminal Cys150
T1 sequence (P03146 whole entry, looked up, the tested form may be a part): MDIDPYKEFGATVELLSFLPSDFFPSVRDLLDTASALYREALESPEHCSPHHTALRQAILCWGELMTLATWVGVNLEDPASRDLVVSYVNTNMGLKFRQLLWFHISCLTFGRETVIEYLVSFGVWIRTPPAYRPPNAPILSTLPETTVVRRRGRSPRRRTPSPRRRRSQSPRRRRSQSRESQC
Method in brief: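 Purified E. coli-expressed HBV core protein (aa 1-149 plus Cys150), BODIPY-FL maleimide-labelled, at 1.0-2.0 μM in 50 mM HEPES pH 7.5 with 0.5% DMSO was used. Compounds were tested at 8 concentrations (0.5-log dilutions from 100, 31.6 or 10 μM). Assembly was started with NaCl ([…]), and fluorescence quenching was read after 6 min (ex 477/em 525 nm). EC50 was determined by non-linear regression.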

[1] = Cell viability assay (AlamarBlue) in HepAD38 cells; details: human
HBV = test: Determination of HBV DNA from the supernatants of HepAD38 cells (anti-HBV activity); format: cell-based, hepatitis B virus; details: Hepatitis B virus, 144 h; HBV DNA in HepAD38 supernatant, day 6, qPCR; read-out: Cell Activity (EC50)
Method in brief: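 HepAD38 cells, tetracycline withdrawn to induce HBV, treated with serial half-log compound dilutions; on day 6 HBV DNA purified from filtered supernatant and quantified by real-time PCR against HBV plasmid standards; EC50 from relative copy numbers by non-linear regression, three experiments in triplicate.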

Compound	IC50 (HBV core protein)	CC50 at 6 days [1]	EC50 (HBV)
CC(C)OCC1(N(C)C(=O)c2n[nH]c3c2CN(C(=O)c2cc4ccccc4[nH]2)CC3)CC1 [Example 208, 5-(1H-indole-2-carbonyl)-N-methyl-N-{1-[(propan-2-yloxy)methyl]cyclopropyl}-1H,4H,5H,6H,7H-pyrazolo[4,3-c]pyridine-3-carboxamide]	< 5 µM	> 10 µM	< 1 µM
CS(=O)(=O)c1n[nH]c2c1CN(C(=O)c1cc3ccccc3[nH]1)CC2 [Example 211, 2-{3-methanesulfonyl-1H,4H,5H,6H,7H-pyrazolo[4,3-c]pyridine-5-carbonyl}-1H-indole]	< 5 µM	> 10 µM	< 1 µM
CN(C(=O)c1n[nH]c2c1CN(C(=O)c1cc3ccccc3[nH]1)CC2)C1CC1 [Example 232, N-cyclopropyl-5-(1H-indole-2-carbonyl)-N-methyl-1H,4H,5H,6H,7H-pyrazolo[4,3-c]pyridine-3-carboxamide]	< 5 µM	> 10 µM	< 1 µM
CN(C(=O)c1n[nH]c2c1CN(C(=O)c1cc3ccccc3[nH]1)CC2)C1(CCC(=O)O)CC1 [Example 245, 3-{1-[N-methyl 5-(1H-indole-2-carbonyl)-1H,4H,5H,6H,7H-pyrazolo[4,3-c]pyridine-3-amido]cyclopropyl}propanoic acid]	5 to 10 µM	> 10 µM	< 100 µM
CCOC(=O)CCC1(N(C)C(=O)c2n[nH]c3c2CN(C(=O)c2cc4ccccc4[nH]2)CC3)CC1 [Example 246, ethyl 3-{1-[N-methyl 5-(1H-indole-2-carbonyl)-1H,4H,5H,6H,7H-pyrazolo[4,3-c]pyridine-3-amido]cyclopropyl}propanoate]	< 100 µM	> 10 µM	< 100 µM
CN(CCC(=O)NS(=O)(=O)C1CC1)C(=O)c1[nH]nc2c1CN(C(=O)c1cc3ccccc3[nH]1)CC2 [Example 247, N-(cyclopropanesulfonyl)-3-{1-[5-(1H-indole-2-carbonyl)-2H,4H,5H,6H,7H-pyrazolo[4,3-c]pyridin-3-yl]-N-methylformamido}propanamide]	< 100 µM	> 10 µM	< 100 µM
COCCC1(N(C)C(=O)c2[nH]nc3c2CN(C(=O)c2cc4ccccc4[nH]2)CC3)CC1 [Example 248, 5-(1H-indole-2-carbonyl)-N-[1-(2-methoxyethyl)cyclopropyl]-N-methyl-2H,4H,5H,6H,7H-pyrazolo[4,3-c]pyridine-3-carboxamide]	< 5 µM	> 10 µM	< 1 µM
CN(C(=O)c1[nH]nc2c1CN(C(=O)c1cc3ccccc3[nH]1)CC2)C1(CO)COC1 [Example 249, N-[3-(hydroxymethyl)oxetan-3-yl]-5-(1H-indole-2-carbonyl)-N-methyl-2H,4H,5H,6H,7H-pyrazolo[4,3-c]pyridine-3-carboxamide]	< 5 µM	> 10 µM	< 1 µM
CN(C(=O)c1[nH]nc2c1CN(C(=O)c1cc3ccccc3[nH]1)CC2)C1(C)COC1 [Example 251, 5-(1H-indole-2-carbonyl)-N-methyl-N-(3-methyloxetan-3-yl)-2H,4H,5H,6H,7H-pyrazolo[4,3-c]pyridine-3-carboxamide]	< 5 µM	> 10 µM	< 1 µM
CN(C(=O)c1[nH]nc2c1CN(C(=O)c1cc3ccccc3[nH]1)CC2)[C@H]1CCC[C@@H]1O [Example 252, N-[(1S,2S)-2-hydroxycyclopentyl]-5-(1H-indole-2-carbonyl)-N-methyl-2H,4H,5H,6H,7H-pyrazolo[4,3-c]pyridine-3-carboxamide]	< 5 µM	> 10 µM	< 1 µM
CN(CC1(O)CCC1)C(=O)c1n[nH]c2c1CN(C(=O)c1cc3ccccc3[nH]1)CC2 [Example 254, N-[(1-hydroxycyclobutyl)methyl]-5-(1H-indole-2-carbonyl)-N-methyl-1H,4H,5H,6H,7H-pyrazolo[4,3-c]pyridine-3-carboxamide]	< 5 µM	> 10 µM	< 1 µM
CCOCCN(C)C(=O)c1n[nH]c2c1CN(C(=O)c1cc3ccccc3[nH]1)CC2 [Example 255, N-(2-ethoxyethyl)-5-(1H-indole-2-carbonyl)-N-methyl-1H,4H,5H,6H,7H-pyrazolo[4,3-c]pyridine-3-carboxamide]	< 5 µM	> 10 µM	< 1 µM
CN(CC(O)C1CC1)C(=O)c1n[nH]c2c1CN(C(=O)c1cc3ccccc3[nH]1)CC2 (stereo not drawn) [Example 256, N-(2-cyclopropyl-2-hydroxyethyl)-5-(1H-indole-2-carbonyl)-N-methyl-1H,4H,5H,6H,7H-pyrazolo[4,3-c]pyridine-3-carboxamide]	< 5 µM	> 10 µM	< 1 µM
COCC1(N(C)C(=O)c2n[nH]c3c2CN(C(=O)c2cc4c(Cl)cccc4[nH]2)CC3)CC1 [Example 262, 5-(4-chloro-1H-indole-2-carbonyl)-N-[1-(methoxymethyl)cyclopropyl]-N-methyl-1H,4H,5H,6H,7H-pyrazolo[4,3-c]pyridine-3-carboxamide]	< 5 µM	> 10 µM	< 1 µM
COCC1(N(C)C(=O)c2n[nH]c3c2CN(C(=O)c2cc4ccc(Cl)cc4[nH]2)CC3)CC1 [Example 263, 5-(6-chloro-1H-indole-2-carbonyl)-N-[1-(methoxymethyl)cyclopropyl]-N-methyl-1H,4H,5H,6H,7H-pyrazolo[4,3-c]pyridine-3-carboxamide]	< 5 µM	> 10 µM	< 1 µM
COCC1(N(C)C(=O)c2n[nH]c3c2CN(C(=O)c2cc4c(Cl)cc(F)cc4[nH]2)CC3)CC1 [Example 264, 5-(4-chloro-6-fluoro-1H-indole-2-carbonyl)-N-[1-(methoxymethyl)cyclopropyl]-N-methyl-1H,4H,5H,6H,7H-pyrazolo[4,3-c]pyridine-3-carboxamide]	< 5 µM	> 10 µM	< 1 µM
COCC1(N(C)C(=O)c2n[nH]c3c2CN(C(=O)c2cc4cc(F)c(Cl)cc4[nH]2)CC3)CC1 [Example 265, 5-(6-chloro-5-fluoro-1H-indole-2-carbonyl)-N-[1-(methoxymethyl)cyclopropyl]-N-methyl-1H,4H,5H,6H,7H-pyrazolo[4,3-c]pyridine-3-carboxamide]	< 5 µM	> 10 µM	< 1 µM
COCC1(N(C)C(=O)c2n[nH]c3c2CN(C(=O)c2cc4c(F)cc(F)cc4[nH]2)CC3)CC1 [Example 266, 5-(4,6-difluoro-1H-indole-2-carbonyl)-N-[1-(methoxymethyl)cyclopropyl]-N-methyl-1H,4H,5H,6H,7H-pyrazolo[4,3-c]pyridine-3-carboxamide]	< 5 µM	> 10 µM	< 1 µM
COCC1(N(C)C(=O)c2n[nH]c3c2CN(C(=O)c2cc4c(F)c(F)ccc4[nH]2)CC3)CC1 [Example 267, 5-(4,5-difluoro-1H-indole-2-carbonyl)-N-[1-(methoxymethyl)cyclopropyl]-N-methyl-1H,4H,5H,6H,7H-pyrazolo[4,3-c]pyridine-3-carboxamide]	< 5 µM	> 10 µM	< 1 µM
COCC1(N(C)C(=O)c2n[nH]c3c2CN(C(=O)c2cc4c(C)cc(F)cc4[nH]2)CC3)CC1 [Example 269, 5-(6-fluoro-4-methyl-1H-indole-2-carbonyl)-N-[1-(methoxymethyl)cyclopropyl]-N-methyl-1H,4H,5H,6H,7H-pyrazolo[4,3-c]pyridine-3-carboxamide]	< 5 µM	> 10 µM	< 1 µM
CCc1cccc2[nH]c(C(=O)N3CCc4[nH]nc(C(=O)N(C)C5(COC)CC5)c4C3)cc12 [Example 270, 5-(4-ethyl-1H-indole-2-carbonyl)-N-[1-(methoxymethyl)cyclopropyl]-N-methyl-1H,4H,5H,6H,7H-pyrazolo[4,3-c]pyridine-3-carboxamide]	< 5 µM	> 10 µM	< 1 µM
CCc1cc(F)cc2[nH]c(C(=O)N3CCc4[nH]nc(C(=O)N(C)C5(CO)CC5)c4C3)cc12 [Example 271, 5-(4-ethyl-6-fluoro-1H-indole-2-carbonyl)-N-[1-(hydroxymethyl)cyclopropyl]-N-methyl-1H,4H,5H,6H,7H-pyrazolo[4,3-c]pyridine-3-carboxamide]	< 5 µM	> 10 µM	< 1 µM
CCc1cc(F)cc2[nH]c(C(=O)N3CCc4[nH]nc(C(=O)N(C)C5(COC)CC5)c4C3)cc12 [Example 272, 5-(4-ethyl-6-fluoro-1H-indole-2-carbonyl)-N-[1-(methoxymethyl)cyclopropyl]-N-methyl-1H,4H,5H,6H,7H-pyrazolo[4,3-c]pyridine-3-carboxamide]	< 5 µM	> 10 µM	< 1 µM
CCON=C(C)c1n[nH]c2c1CN(C(=O)c1cc3ccccc3[nH]1)CC2 [Example 273, ethoxy({1-[5-(1H-indole-2-carbonyl)-1H,4H,5H,6H,7H-pyrazolo[4,3-c]pyridin-3-yl]ethylidene})amine]	< 100 µM	> 10 µM	1 to 25 µM
CON=C(C)c1n[nH]c2c1CN(C(=O)c1cc3ccccc3[nH]1)CC2 [Example 274, {1-[5-(1H-indole-2-carbonyl)-1H,4H,5H,6H,7H-pyrazolo[4,3-c]pyridin-3-yl]ethylidene}(methoxy)amine]	< 100 µM	> 10 µM	1 to 25 µM
